In patent publication US9763961B2, “Compositions that modulate the activity of estrogen receptors and estrogen-related receptors and methods for use” (CITY OF HOPE, priority 2005, dated 2017):
Each block holds one molecule with its values, some of them ahead of it.

Columns and labels:
[1] = molecular target: T1, ERRβ (Homo sapiens, UniProt O95718); assay: Relative luciferase activity for ERRβ (FIG. 8); type: cell-based
T1 construct: expressed in transfected cells; host or cells: HeLa
T1 sequence (O95718 1-433): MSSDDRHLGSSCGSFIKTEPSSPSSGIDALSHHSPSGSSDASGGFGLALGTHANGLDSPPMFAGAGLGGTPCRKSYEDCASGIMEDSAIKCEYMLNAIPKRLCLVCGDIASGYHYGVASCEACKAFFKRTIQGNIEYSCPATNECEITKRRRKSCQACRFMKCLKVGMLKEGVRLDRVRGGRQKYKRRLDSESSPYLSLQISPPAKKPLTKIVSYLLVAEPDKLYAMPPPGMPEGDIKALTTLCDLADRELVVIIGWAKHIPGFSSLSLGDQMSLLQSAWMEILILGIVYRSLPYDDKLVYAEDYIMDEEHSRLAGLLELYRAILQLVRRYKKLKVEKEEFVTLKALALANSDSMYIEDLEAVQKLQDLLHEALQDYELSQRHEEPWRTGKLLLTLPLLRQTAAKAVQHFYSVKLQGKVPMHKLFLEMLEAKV

[2] = molecular target: T2, ERRγ (Homo sapiens, UniProt P62508); assay: Relative luciferase activity for ERRγ (FIG. 8); type: cell-based
T2 construct: expressed in transfected cells; host or cells: HeLa
T2 sequence (P62508 1-458): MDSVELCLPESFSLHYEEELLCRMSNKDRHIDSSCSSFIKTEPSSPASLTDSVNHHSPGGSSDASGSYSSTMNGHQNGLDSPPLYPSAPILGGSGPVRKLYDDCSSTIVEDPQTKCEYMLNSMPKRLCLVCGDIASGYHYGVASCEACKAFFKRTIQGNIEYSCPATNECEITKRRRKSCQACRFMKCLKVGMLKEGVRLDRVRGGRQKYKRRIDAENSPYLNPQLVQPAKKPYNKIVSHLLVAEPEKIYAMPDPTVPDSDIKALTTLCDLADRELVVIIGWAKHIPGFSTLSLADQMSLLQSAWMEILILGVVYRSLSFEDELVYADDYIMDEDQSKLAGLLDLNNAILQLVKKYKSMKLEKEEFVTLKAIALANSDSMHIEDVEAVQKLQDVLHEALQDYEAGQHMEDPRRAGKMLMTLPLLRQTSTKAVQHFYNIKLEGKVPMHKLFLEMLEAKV

[3] = molecular target: T3, ERRα (Homo sapiens, UniProt P11474); assay: Relative luciferase activity for ERRα (FIG. 8); type: cell-based; set-up: endogenous in cells; host or cells: SK-BR-3
T3 sequence (P11474 1-423): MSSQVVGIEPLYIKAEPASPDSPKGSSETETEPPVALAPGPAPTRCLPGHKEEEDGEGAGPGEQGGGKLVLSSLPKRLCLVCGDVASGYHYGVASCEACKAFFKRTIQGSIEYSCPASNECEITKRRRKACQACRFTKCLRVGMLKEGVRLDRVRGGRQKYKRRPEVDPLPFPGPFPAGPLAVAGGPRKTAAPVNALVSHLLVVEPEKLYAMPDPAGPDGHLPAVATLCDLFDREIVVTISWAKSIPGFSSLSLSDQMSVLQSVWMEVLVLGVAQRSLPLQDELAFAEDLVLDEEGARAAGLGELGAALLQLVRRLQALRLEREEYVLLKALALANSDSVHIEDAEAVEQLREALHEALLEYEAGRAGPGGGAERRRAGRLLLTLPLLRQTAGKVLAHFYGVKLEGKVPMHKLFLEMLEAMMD

[4] = system: ER; conditions: cited from earlier work
[5] = molecular target: T4, human ERRα-1 (Homo sapiens, UniProt P11474); assay: Transient transfection luciferase assay, full length human ERRα with SF1-SV40-Luc reporter in HeLa cells; type: cell-based; conditions: HeLa cells
T4 construct: expressed in transfected cells; host or cells: HeLa
T4 sequence (P11474 1-423): T3 sequence (P11474 1-423)
Protocol: HeLa cells were cultured in MEM Earle's salts medium supplemented with 5% charcoal/dextran-treated fetal bovine serum. Cells were then divided and cultured in 6-well plates until 80% confluence was achieved. The cells were next transfected with 4 μg Lipofectin. An equal amount of total DNA was used in all transfections by including appropriate amounts of the empty vector, pSG5, in addition to specific amounts of pSG5-ERRα and luciferase reporter plasmids (ERRE (ERRα recognizes an ERE half site)-containing reporter and aromatase promoter I.3-containing reporter). Following an overnight incubation, the medium containing Lipofectin and DNA was removed, and the cells cultured in a growth medium containing 5% charcoal/dextran-treated fetal bovine serum with or without ligands. After a 24-hour incubation, the cells was harvested from the plates by scraping, and the luciferase activities in the cell lysates (with the same amounts of protein) was measured according to the manufacturer's instructions (Promega). All experiments were performed in triplicate.
(§1) To evaluate the functional significance of the interaction of chalcones with ERRα, we incubated these compounds with HeLa cells which were transiently transfected with human ERRα expression plasmid and a luciferase reporter plasmid containing SF1 binding site. […] In order to confirm the results above, HeLa cells were transiently transfected with GAL4-human ERRα LBD fusion expression plasmid and a luciferase reporter plasmid containing GAL4 binding site. […] Most of the compounds, however, have similar IC50 value, and have a similar potency.
(§2) Referring to FIG. 1, HeLa cells were cotransfected with pSG5-ERRα (0.5 μg) and luciferase reporter plasmid containing SF1 binding site and SV40 promoter (0.25 μg). The transfected cells were incubated with Compound No. 1-9 for 24 h. After cells were washed with 1× PBS, luciferase activity was measured. Values represent the mean±SD.

[6] = molecular target: T5, GAL4-human ERRα LBD fusion (Homo sapiens, UniProt P11474); assay: Transient transfection luciferase assay, GAL4-human ERRα LBD fusion with Gal4-TK-Luc reporter in HeLa cells; type: cell-based; conditions: pM-ERRα LBD, 24 h, mean ± SD
T5 construct: GAL4-human ERRα LBD fusion expression plasmid; expressed in transfected cells; host or cells: HeLa
T5 sequence (P11474 193-421 limits assumed): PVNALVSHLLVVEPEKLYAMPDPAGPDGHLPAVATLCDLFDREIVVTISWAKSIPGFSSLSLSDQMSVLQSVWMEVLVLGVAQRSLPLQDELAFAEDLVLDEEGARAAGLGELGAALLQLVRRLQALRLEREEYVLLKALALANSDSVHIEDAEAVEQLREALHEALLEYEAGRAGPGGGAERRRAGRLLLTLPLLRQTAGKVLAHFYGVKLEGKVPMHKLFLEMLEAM
Protocol: Referring to FIG. 2, we have also prepared GAL4-ERRα expression plasmid and luciferase reporter plasmids with GAL4 response element. This is a more sensitive assay method than that using pSG5-ERRα and ERE luciferase reporter plasmids.
as §1
as §2, with “2,” for “1,”, “pM-ERRα LBD” for “pSG5-ERRα”, “GAL4” for “SF1”, “TK” for “SV40”

[7] = molecular target: T1, ERRβ; assay: Transient transfection luciferase assay with pSG5-ERRb and SF1-SV40 reporter in HeLa cells; type: cell-based
[8] = molecular target: T2, ERRγ; assay: Transient transfection luciferase assay with pSG5-ERRg and SF1-SV40 reporter in HeLa cells; type: cell-based
[9] = molecular target: T6, ERα (Homo sapiens, UniProt P03372); assay: Transient transfection luciferase assay with pSG5-ERa and ERE-SV40 reporter in HeLa cells, with 100 pM estradiol; type: cell-based
T6 construct: expressed in transfected cells; host or cells: HeLa
T6 sequence (P03372 1-595): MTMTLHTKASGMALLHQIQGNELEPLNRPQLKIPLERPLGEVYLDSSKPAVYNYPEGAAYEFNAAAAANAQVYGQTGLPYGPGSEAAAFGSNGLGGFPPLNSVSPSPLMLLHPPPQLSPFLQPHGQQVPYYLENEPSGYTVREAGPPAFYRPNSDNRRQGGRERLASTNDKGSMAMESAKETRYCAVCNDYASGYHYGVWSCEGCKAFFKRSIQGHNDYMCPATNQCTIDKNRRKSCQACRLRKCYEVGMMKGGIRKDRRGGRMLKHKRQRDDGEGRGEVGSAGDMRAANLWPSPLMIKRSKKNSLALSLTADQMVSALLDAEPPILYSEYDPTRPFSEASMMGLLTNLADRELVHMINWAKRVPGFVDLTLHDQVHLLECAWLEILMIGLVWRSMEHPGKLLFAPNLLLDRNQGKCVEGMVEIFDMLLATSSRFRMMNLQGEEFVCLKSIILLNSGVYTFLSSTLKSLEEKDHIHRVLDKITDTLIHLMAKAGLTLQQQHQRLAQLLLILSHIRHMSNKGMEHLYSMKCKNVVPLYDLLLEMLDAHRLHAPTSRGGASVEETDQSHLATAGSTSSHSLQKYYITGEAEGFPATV

[10] = molecular target: T7, ERβ (Homo sapiens, UniProt Q92731); assay: Transient transfection luciferase assay with pCI-ERb and ERE-SV40 reporter in HeLa cells, with 100 pM estradiol; type: cell-based
T7 construct: expressed in transfected cells; host or cells: HeLa
T7 sequence (Q92731 whole entry, species assumed): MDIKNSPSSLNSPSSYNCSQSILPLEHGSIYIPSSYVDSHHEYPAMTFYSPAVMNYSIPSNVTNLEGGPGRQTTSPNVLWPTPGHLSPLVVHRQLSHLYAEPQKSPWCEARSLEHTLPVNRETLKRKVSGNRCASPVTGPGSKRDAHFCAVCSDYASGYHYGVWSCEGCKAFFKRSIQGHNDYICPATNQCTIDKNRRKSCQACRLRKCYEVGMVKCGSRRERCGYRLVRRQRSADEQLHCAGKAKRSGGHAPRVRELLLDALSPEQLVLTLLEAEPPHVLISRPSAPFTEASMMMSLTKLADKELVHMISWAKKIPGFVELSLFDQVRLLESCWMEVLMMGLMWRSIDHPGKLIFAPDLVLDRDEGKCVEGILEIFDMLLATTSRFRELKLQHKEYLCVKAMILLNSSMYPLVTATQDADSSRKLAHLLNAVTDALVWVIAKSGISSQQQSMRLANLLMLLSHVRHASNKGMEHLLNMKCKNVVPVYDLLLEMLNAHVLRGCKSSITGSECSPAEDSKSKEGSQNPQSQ

[11] = HeLa cells, 24 h, average of at least two experiments
[12] = HeLa cells, in the presence of 100 pM of estradiol, 24 h

SMILES: O=C(/C=C/c1ccc(O)cc1)c1ccc(O)cc1O [Compound No. 3-15, 4,2′,4′-trihydroxychalcone]
Agonist activity on ERRβ [1]: agonist of all three forms of ERRs
Agonist activity on ERRγ [2]: agonist of all three forms of ERRs
Agonist activity on ERRα [3]: agonist of all three forms of ERRs

SMILES: CC/C(=C(/c1ccc(O)cc1)c1ccc(OCCN(C)C)cc1)c1ccccc1 [E-4-OHT]
Affinity for ER relative to Z-4-OHT [4]: about 5%

Antagonism of constitutive activity of ERRα (in words) ([5]; SF1 binding site reporter, FIG. 1): antagonists of ERRα
IC50 ([5]; pSG5-ERRα, 24 h, mean ± SD): 8.3 ± 0.4 µM
IC50 [6]: 2e+06 ± 700000 pM
IC50 [7, 11]: 6.7 µM
Antagonistic properties on ERRb (in words) ([7]; transient transfection): showed antagonistic properties
IC50 [8, 11]: 8 µM
Antagonistic properties on ERRg (in words) ([8]; transient transfection): showed antagonistic properties
IC50 [9, 12]: 7.8 µM
Antagonistic properties on ERa (in words) ([9]; transient transfection): showed antagonistic properties
IC50 [10, 12]: 15 µM
Antagonistic properties on ERb (in words) ([10]; transient transfection): showed antagonistic properties
SMILES: COc1ccc(C(=O)/C=C/c2ccccc2OC)c(O)c1 [7-2]
